Reference: patent publication US20240100079A1, “METHODS AND COMPOSITIONS FOR REGENERATING HAIR CELLS IN THE INNER EAR OF ADULT MAMMALS” (Massachusetts Eye and Ear Infirmary, priority 2021, published 2024)

What was measured:
[1] = test system: cultured adult mouse cochlea; assay: Hair cell regeneration in cultured adult wild-type mouse cochlea, reprogramming followed by ad-Atoh1 infection; type: cell-based; details: for reprogramming and regeneration of hair cells with another HDAC inhibitor in the cocktail instead of VPA: TSA 82.5 nM, SAHA 2 μM, Belinostat 1 μM with LiCl, FSK, siFIR, siMxi1, after Ad-Atoh1 infection
Description: Different from the neonatal cochlear culture method, in which the cochleae were disassociated from the bone, adult mouse whole cochleae (4-6 weeks old) were dissected with the bone attached. The bulla was first removed from the skull and dipped in 75% ethanol for 3 minutes before being placed in HBSS. The vestibular region was also removed. Under a dissecting microscope, the middle ear, vessels and the debris were removed from the bulla. The bone covering the apical turn was removed, and round window and oval window membranes were opened to allow media exchange with the cochlear fluids. The ligament portion and Reissner's membrane at each end of the cochlea were also removed to facilitate the access of medium to the sensory epithelial region. The cochleae were maintained in DMEM/F12 (Invitrogen) supplemented with N2 and B27 (both from Invitrogen) for 14-18 days. Ad-Atoh1 ad-Atoh1-mCherry adenoviruses were purchased from the SignaGen Laboratories, Rockville, MD, with titers of 6×10^10 pfu/ml.
In the rtTA/tet-Myc/tet-NICD mouse model, cochleae were treated with Dox (Sigma, 2 μg/ml final concentration); In the Sox2/tdT/rtTA/tet-Myc/tet-NICD mouse model, cochleae were treated with Dox (Sigma, 2 μg/ml final concentration) and 4-Hydroxytamoxifen (Tm, Sigma) (20 ng/ml); in the rtTA/tet-Myc and rtTA/tet-Myc/Atoh1-GFP mouse models, cochleae were treated with Dox (Sigma, 2 μg/ml final concentration) and VPA (2 mM); in the Sox2/tdT/rtTA/tet-Myc mouse model, cochleae were treated with 4-Hydroxytamoxifen (20 ng/ml), Dox (Sigma, 2 μg/ml) and VPA (Sigma, 2 mM); in the rtTA/tet-NICD mouse model, cochleae were treated with Dox (Sigma, 2 μg/ml final concentration), LiCl (Sigma, 8 mM), FSK (Tocris Bioscience, 20 μM), siFIR (Santa Cruz Bio-technology, 0.02 μM), and siMxi1 (Santa Cruz Bio-technology, 0.02 μM); in the Sox2/tdT/rtTA/tet-NICD mouse model, cochleae were treated with 4-Hydroxytamoxifen (20 ng/ml), Dox (Sigma, 2 μg/ml final concentration), LiCl (8 mM), Forskolin (FSK) (20 μM), siFIR (Puf 60, Gene ID: 67959) […], and siMxi1 (Gene ID: 17859) (0.02 μM); in the Atoh1-GFP mouse model, cochleae were treated with VPA (2 mM), LiCl (8 mM), FSK […], siFIR (0.02 μM), and siMxi1 (0.02 μM) for 4 days, followed by ad-Atoh1 (6×10^10 pfu/ml) infection overnight. siRNAs were delivered following the manufacturer's instructions (Polyplus-transfection; 89129-920). In cultured adult mouse cochleae, they were treated with HDAC inhibitor, Belinostat (1 μM, Medchemexpress), Trichostatin A (TSA)(82.5 nM, Medchemexpress), Vorinostat (SAHA)(2 μM; Medchemexpress), and Myc siRNA Fbxw7 (0.02 μM, Santa Cruz Biotechnology). The controls were cultured adult cochleae of the same genotype treated with vehicle (sterile water with 0.1% DMSO) plus ad-Atoh1. […]

[2] = test system: adult wild-type mouse utricle; assay: Neomycin damage of cultured adult mouse utricle; type: cell-based; details: neomycin 4 mM for 5 days, vs untreated utricles
Description: Whole utricles were dissected from 4-week-old mice and cultured free-floating. Otoconia were removed using a gentle stream of phosphate-buffered saline (PBS) ejected from a 25G needle and syringe. Utricles were cultured in 1000 μL of media in untreated 24-well flat bottom plates. All cultures were maintained at 37° C. in 5% CO2/95% air.
Culture media consisted of Dulbecco's Modified Eagle's Medium/F12 (DMEM/F12, Invitrogen) with B27 and N2 supplement. Neomycin sulfate stock (10 mg/mL in 0.9% NaCl, from Sigma Aldrich) was diluted in culture media to 4 mM. Valproic acid (VPA) from Sigma was included at 2 mM, and siRNAs from Santa Cruz were included at 0.02 μM.

Row | Compound | reprogramming and regeneration of hair cells with another HDAC inhibitor in the cocktail instead of VPA [1] | further results
1 | O=C(/C=C/c1cccc(S(=O)(=O)Nc2ccccc2)c1)NO [Belinostat, belinostat] | sufficient to induce reprogramming and efficient regeneration of hair cells | –
2 | Neomycin sulfate | – | utricle hair cells (MYO7A) after neomycin [2]: decreased total numbers of utricle HC; utricle hair cells (MYO7A) after neomycin ([2]; listed as Neomycin): loss of hair cells
3 | CCCC(CCC)C(=O)[O-].[Na+] [VPA, Sodium 2-propylpentanoate] | – | HC (MYO7A+) regeneration ([1]; cultured adult WT cochlea, treatment followed by Ad-Atoh1 infection (FIG. 7B)): did not lead to HC (MYO7A)
4 | CC(/C=C/C(=O)NO)=C\[C@@H](C)C(=O)c1ccc(N(C)C)cc1 [TSA, (2E,4E,6R)-7-(4-(Dimethylamino)phenyl)-N-hydroxy-4,6-dimethyl-7-oxo-2,4-heptadienamide] | sufficient to induce reprogramming and efficient regeneration of hair cells | –
5 | O=C(CCCCCCC(=O)Nc1ccccc1)NO [SAHA, N-Hydroxy-N′-phenyloctanediamide] | sufficient to induce reprogramming and efficient regeneration of hair cells | –
